Laboratory results: US20260240842A1, “METHODS TO PREVENT THERAPY RESISTANCE IN MELANOMA VIA BLOCKING GENOMIC INSTABILITY” (THE REGENTS OF THE UNIVERSITY OF CALIFORNIA, priority 2022, published 2026)

Experiments:
γH2AX = assay: Immunofluorescence of γH2AX nuclear foci in early on-treatment PDX tumors; format: in vivo, NSG mice; conditions: short-term MEKi treatment in Mel_PDX1; FIG. 13G
Source text: FIGS. 13A-13H. In vivo impacts of DNA-PKi when combined with MAPKi. FIGS. 13A and 13B: Long-term follow-up of tumor volumes (13A, BRAFi+MEKi, n=5 tumors; BRAFi+MEKi+DNA-PKi, n=6 tumors) (13B, MEKi, n=6 tumors; MEKi+DNAP-PKi, n=6 tumors) and average mice body weights for 13A and 13B. Related to experiments in FIGS. 7B and 7E, respectively. FIGS. 13C and 13D, Tumor volumes (mean±SEM) of two examples of tumor models treated short-term with vehicle or indicated single versus combined agents. Inhibitors and dosages are identical to those in FIGS. 7C and 7E, respectively. The numbers of tumors and their sizes are shown in the photographs (right) taken at the times of tumor harvest (end points). FIGS. 13E to 13G: Immunofluorescence of p-ERK (13E), p-DNA-PKcs (S2056) (13F), or γH2AX (13G) levels in Mel_PDX1 tumor model, treated with vehicle or indicated single versus combined agents for 11 days (shown in 13C). DAPI, nuclear stain. Scale bar, 50 μm (13E) and 20 μm (13F and 13G). Representative images shown for two tumors analyzed per group. Quantification of p-DNA-PKcs signals obtained by taking the average of positively stained foci per nucleus (13F, representative of 4 fields). Quantification of γH2AX signals analyzed either by percentage of cells with γH2AX foci or percentage of cells with greater than 5 γH2AX foci (13G, representative of 4 fields). […]

[1] = tested on: human BRAF^V600MUT (M229, M249, M395) or NRAS^Q61MUT (M202, M207, M245) melanoma cell lines; assay: Long-term clonogenic growth: emergence of acquired MAPKi-resistant colonies (DTPPs) in parental melanoma cell lines under MAPKi; format: cell-based; conditions: parental cell lines, FIG. 11C to 11E and FIG. 12
Method: FIGS. 4A-4U. DNA-PKi and/or PARPi co-treatment prevents acquired MAPKi-resistance in human melanoma cell lines. FIGS. 4A to 4O: Long-term clonogenic growth of isogenic parental and acquired MAPKi-resistant BRAF^V600MUT (4A to 4H) or NRAS^Q61MUT (4I to 4O) human melanoma cell lines showing acquired-resistant colonies to BRAFi+MEKi (PLX4032 at 0.5 mM, AZD6244 at 0.5 mM in 4A and 4G; PLX4032 at 0.25 mM, AZD6244 at 0.25 mM in 4D; PLX4032 at 1 mM, AZD6244 at 1 mM in 4B, 4C, 4E, 4F and 4H) or MEKi (trametinib at 0.005 mM in I and 0.01 mM in 4J and 4N; trametinib at 0.1 mM in 4K, 4M and 4O) and their suppression by indicated co-treatments with DNA-PKi (NU7026) and/or PARPi (ABT888) at indicated concentrations. Top, representative cultures; bottom, quantifications over n=4 fields (mean±SD). Data representative of 2 to 4 independent repeats. Seeding densities (cells/well in 6-well dishes) and culture durations (days): (4A) 5,000; 31, (4B) 1,000; 17, (4C) 5,000; 18, (4D) 40,000; 40, (4E) 5,000; 14, (4F) 5,000; 12, (4G) 20,000; 30, (4H) 20,000; 21, (4I) 40,000; 30, (4J) 50,000; 31, (4K) 5,000; 17, (4L) 5,000; 22, (4M) 5,000; 16, (4N) 20.000; 16, and (4O) 5,000; 16. Data representative of 2 to 4 independent repeats. FIGS. 4P and 4Q: Western blot, MTT assay (upper), and clonogenic growth assay (lower) of M245 cells transduced by lentivirus harboring shVector control or shRNAs of PRKDC (4P) or LIG4 (4Q). TUBULIN, loading control. Clonogenic growth with vehicle (14 days, 5,000 cells/well in 6-well dishes) or MEKi (29 days, 50,000 cells/well in 6-well dishes) treatments. MEKi, trametinib at 0.01 μM. Representative results of two independent experiments; quantification of n=4 fields (mean±SD). FIGS. 4R and 4S: As in 4A and 4J, respectively, except DNA-PKi and/or PARPi co-treatments were performed in M229 (4R) and M245 (4S) at a later stage of MAPKi treatment (see timepoint schema). Inhibitor concentrations for M229: BRAFi+MEKi (PLX4032 at 0.5 μM, AZD6244 at 0.5 μM), NU7026 (8 μM), ABT888 (4 μM) and NU7026+ABT888 (4 μM+4 μM). Inhibitor concentrations for M245: MEKi (trametinib at 0.01 μM), NU7026 (5 μM), ABT888 (1 μM) and NU7026+ABT888 (5 μM+1 μM). Left, representative cultures; right, quantifications over n=4 fields (mean±SD). Data representative of 2 independent repeats. FIGS. 4T and 4U: As in 4A and 4J, respectively, except DNA-PKi and/or PARPi co-treatments were performed in M229 (4T) and M245 cells (4U) at the same concentrations in R and S for the entire durations (day 1-28 in 4T; day 1-30 in 4U), the first half (day 1-14 in T; day 1-15 in 4U) or the second half (day 14-28 in 4T: day 15-30 in 4U) of the total treatment course. Top, representative cultures; bottom, quantifications over n=4 fields (mean±SD). Data representative of 2 independent repeats. P values (one-way ANOVA followed by Tukey's multiple comparison test) comparing indicated cultures versus MAPKi-only cultures (4A to 4O and 4R to 4U) or shVector culture (4P and 4Q): *, p<0.05; **, p<0.01: ***, p<0.001.
FIGS. 12A-12F. DNA-PKi and/or PARPi co-treatment prevents acquired MAPKi-resistance in human melanoma cell lines. FIGS. 12A to 12F: Long-term clonogenic growth of BRAF^V600MUT (12A, 12C and 12E) or NRAS^Q61MUT (12B, 12D and 12F) cell lines showing acquired-resistant colonies to BRAFi+MEKi (PLX4032 at 0.5 mM, AZD6244 at 0.5 mM for M229 and M395; PLX4032 at 0.25 mM, AZD6244 at 0.25 mM for M249) or MEKi (trametinib at 0.005 mM for M202 and 0.01 mM for M207 and M245) and their suppression by indicated co-treatments with DNA-PKi (VX984 in 12A and 12B; AZD7648 in 12C and 12D) and/or PARPi (olaparib in 12E and 12F) at indicated concentrations. Top, representative cultures; bottom, quantifications over n=4 fields (mean±SD). Data representative of 2 independent repeats. Seeding densities (cells/well in 6-well dishes) and culture durations (days): M202 (40,000, 30), M207 (20,000, 16), M229 (5,000, 32), M245 (50,000, 31), M249 (40,000, 40), and M395 (20,000, 30). […]

Row | SMILES | tumor cells with gH2AX nuclear foci (γH2AX) | combinatorial efficacy of next-generation DNA-PKi and PARPi with MAPKi [1]
1 | CC(=O)Nc1cccc(-n2c(=O)n(C3CC3)c(=O)c3c(Nc4ccc(I)cc4F)n(C)c(=O)c(C)c32)c1 [trametinib] | > 50% | 
2 | O=C(c1cc(Cc2n[nH]c(=O)c3ccccc23)ccc1F)N1CCN(C(=O)C2CC2)CC1 [olaparib] |  | corroborated the combinatorial efficacy
3 | Cc1cc2ncnn2cc1Nc1ncc2c(n1)n(C1CCOCC1)c(=O)n2C [AZD7648] |  | corroborated the combinatorial efficacy
